Active and inactive are the calls of the source. The rule behind the calls is not given here.
Key:
[1] = target: Endoribonuclease Dicer (Homo sapiens) (UniProt Q9UPY3); experiment: Inhibition of human recombinant Dicer-mediated long dsRNA digestion assessed as 21- to 23-mer short RNA formation at 200 uM after 3 hrs by denaturing-PAGE analysis
[2] = target: Endoribonuclease Dicer (Homo sapiens) (UniProt Q9UPY3); experiment: Inhibition of human recombinant Dicer-mediated pre-miR-29a processing assessed as reduction of mature miR-29a formation at 200 uM after 3 hrs by Northern blot analysis
[3] = target: Endoribonuclease Dicer (Homo sapiens) (UniProt Q9UPY3); experiment: Inhibition of human recombinant Dicer-mediated pre-miR-29a without internal loop processing assessed as reduction of mature miR-29a formation by Northern blot analysis (reference value: 30%); conditions: concentration not given here
[4] = target: Endoribonuclease Dicer (Homo sapiens) (UniProt Q9UPY3); experiment: Inhibition of human recombinant Dicer-mediated pre-miR-29a without bulge loop processing assessed as reduction of mature miR-29a formation by Northern blot analysis (reference value: 51%); conditions: concentration not given here
[5] = target: Endoribonuclease Dicer (Homo sapiens) (UniProt Q9UPY3); experiment: Inhibition of human recombinant Dicer-mediated pre-miR-29a processing assessed as reduction of mature miR-29a formation by Northern blot analysis (reference value: 41%); conditions: concentration not given here

Endoribonuclease Dicer (Homo sapiens), sequence (Q9UPY3 whole entry): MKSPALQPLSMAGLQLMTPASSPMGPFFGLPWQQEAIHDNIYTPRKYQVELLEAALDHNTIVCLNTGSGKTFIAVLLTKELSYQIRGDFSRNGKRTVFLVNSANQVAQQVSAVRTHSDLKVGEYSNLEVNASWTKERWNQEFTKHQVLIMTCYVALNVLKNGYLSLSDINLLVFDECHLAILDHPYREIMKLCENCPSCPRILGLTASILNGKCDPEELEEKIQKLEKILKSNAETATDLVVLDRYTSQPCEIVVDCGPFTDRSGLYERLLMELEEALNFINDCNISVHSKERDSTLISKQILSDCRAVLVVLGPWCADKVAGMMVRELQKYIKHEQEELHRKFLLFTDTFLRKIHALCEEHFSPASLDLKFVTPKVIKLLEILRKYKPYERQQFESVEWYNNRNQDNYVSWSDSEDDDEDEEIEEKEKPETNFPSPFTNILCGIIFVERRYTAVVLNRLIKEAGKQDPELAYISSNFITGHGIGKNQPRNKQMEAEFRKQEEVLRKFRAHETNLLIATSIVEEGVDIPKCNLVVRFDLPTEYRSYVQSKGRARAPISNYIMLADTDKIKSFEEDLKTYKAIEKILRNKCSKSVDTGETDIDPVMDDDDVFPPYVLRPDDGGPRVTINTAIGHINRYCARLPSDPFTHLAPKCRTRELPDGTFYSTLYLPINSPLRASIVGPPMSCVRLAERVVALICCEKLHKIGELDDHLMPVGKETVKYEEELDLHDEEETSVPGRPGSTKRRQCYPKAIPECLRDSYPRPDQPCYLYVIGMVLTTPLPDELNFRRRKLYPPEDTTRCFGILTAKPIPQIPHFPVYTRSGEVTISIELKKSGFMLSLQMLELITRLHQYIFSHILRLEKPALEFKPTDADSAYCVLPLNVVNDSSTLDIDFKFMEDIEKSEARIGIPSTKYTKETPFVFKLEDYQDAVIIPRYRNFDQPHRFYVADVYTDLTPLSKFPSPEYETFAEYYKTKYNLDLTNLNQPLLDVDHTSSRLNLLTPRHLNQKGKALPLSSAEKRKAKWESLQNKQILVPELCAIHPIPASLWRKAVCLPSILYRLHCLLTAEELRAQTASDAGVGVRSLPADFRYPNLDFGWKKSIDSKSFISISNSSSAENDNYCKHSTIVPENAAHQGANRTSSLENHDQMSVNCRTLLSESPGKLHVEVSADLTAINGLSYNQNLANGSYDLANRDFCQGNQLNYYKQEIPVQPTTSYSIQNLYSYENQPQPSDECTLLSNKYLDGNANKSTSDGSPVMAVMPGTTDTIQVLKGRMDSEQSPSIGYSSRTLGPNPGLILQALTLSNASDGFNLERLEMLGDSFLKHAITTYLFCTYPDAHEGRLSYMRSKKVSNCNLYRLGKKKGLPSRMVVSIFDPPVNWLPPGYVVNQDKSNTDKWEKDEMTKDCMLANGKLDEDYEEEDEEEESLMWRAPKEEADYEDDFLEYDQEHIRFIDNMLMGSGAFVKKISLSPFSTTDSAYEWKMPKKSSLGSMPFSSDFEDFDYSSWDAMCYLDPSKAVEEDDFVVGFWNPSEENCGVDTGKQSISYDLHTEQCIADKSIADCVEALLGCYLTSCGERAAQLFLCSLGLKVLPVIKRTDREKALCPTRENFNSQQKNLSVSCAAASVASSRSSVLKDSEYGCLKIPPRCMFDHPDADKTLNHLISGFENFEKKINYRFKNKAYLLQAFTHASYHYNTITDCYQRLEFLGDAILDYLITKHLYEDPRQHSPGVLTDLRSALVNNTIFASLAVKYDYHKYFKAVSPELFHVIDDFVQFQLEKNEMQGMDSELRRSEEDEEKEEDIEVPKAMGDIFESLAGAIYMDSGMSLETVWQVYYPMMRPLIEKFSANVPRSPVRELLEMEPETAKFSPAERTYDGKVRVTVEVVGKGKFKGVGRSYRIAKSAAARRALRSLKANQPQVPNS

Row | inhibition [1] | inhibition [2] | inhibition [3] [%] | inhibition [4] [%] | inhibition [5] [%] | SMILES
1 | inactive | inactive | – | – | – | CN(C)CCOc1ccc2oc3ccc(OCCN(C)C)cc3c(=O)c2c1
2 | inactive | inactive | – | – | – | NCCCCCCOc1ccc2oc3ccc(OCCCCCCN)cc3c(=O)c2c1
3 | inactive | Active | – | – | – | NCCOc1ccc2oc3ccc(OCCN)cc3c(=O)c2c1

More lines, now with the values behind:

Row | SMILES | inhibition [1] | inhibition [2] | inhibition [3] [%] | inhibition [4] [%] | inhibition [5] [%]
4 | CN(C)CCOc1ccc2sc3ccc(OCCN(C)C)cc3c(=O)c2c1 | inactive | inactive | – | – | –
5 | CC(CN)Oc1ccc2oc3ccc(OC(C)CN)cc3c(=O)c2c1 (stereo not given) | inactive | inactive | – | – | –
6 | NCCOc1ccc2sc3ccc(OCCN)cc3c(=O)c2c1 | inactive | Active | 22 | 46 | 23

— ChEMBL document CHEMBL2311396, “Xanthone derivatives as potential inhibitors of miRNA processing by human Dicer: targeting secondary structures of pre-miRNA by small molecules” (Bioorg Med Chem Lett, 2013)
